In patent US12084441B2, “Salts of a compound and the crystalline forms thereof” (priority 2017, dated 2024):

Columns and labels:
[1] = Stability experiment of salt of Formula A (high temperature, high humidity, illumination; HPLC purity and X-ray powder diffraction); assay type: physicochemical; details: for Purity (%): HPLC; for Stability (chemical purity and crystalline form): high temperature, illumination or high humidity for 10 days
Description: Determination method: the test samples of Form A-I, Form B-I, Form C-I, and Form C-Ill of salt of Formula A were placed on the culture dishes respectively, which were uncovered and placed in sealed clean containers. The containers were placed under a temperature of 60° C. for 10 days, under an illumination of 4500 lx±500 lx for 10 days, and under a temperature of 25° C. and a relative humidity of 92.5%±5% for 10 days respectively. Then sampled on the 5th day and the 10th day respectively. Investigated for the purity (using HPLC analysis) and crystalline form (using X-ray powder diffraction analysis) of the samples, and compared the investigation results. The experimental results of the salts and the crystalline forms thereof were shown in Table 1, Table 2, Table 3, and Table 4.9

[2] = physchem; details: water, thermodynamic from solid, Solubility (mg/mL)
Description: (§1) Then the excess solids were filtered out, and the clear filtrates were used to determine solubility.

[3] = Rough solubility test of salt of Formula A in water; assay type: physicochemical; details: Purified Water, 19° C.; for solubility at 5 min: thermodynamic from solid
Description: After each addition of water, the test tube was shaken for 5 minutes until the solid was dissolved completely. Then the rough solubility of the compound was calculated according to the weight of the compound weighed and the total amount of water added.

[4] = Solubility test of salt of Formula A (acetate, Form A-I) and its free base in different solvents; details: thermodynamic from solid
Description: as §1

[5] = 0 day, crystalline form by X-ray powder diffraction
[6] = High humidity (92.5% RH, 25° C.), 5 days
[7] = High humidity (92.5% RH, 25° C.), 5 days, X-ray powder diffraction
[8] = High humidity (92.5% RH, 25° C.), 10 days
[9] = High humidity (92.5% RH, 25° C.), 10 days, X-ray powder diffraction
[10] = High temperature (60° C.), 5 days
[11] = High temperature (60° C.), 5 days, X-ray powder diffraction
[12] = High temperature (60° C.), 10 days
[13] = High temperature (60° C.), 10 days, X-ray powder diffraction
[14] = Illumination (4500 Lx), 5 days, X-ray powder diffraction
[15] = Illumination (4500 Lx), 10 days
[16] = Illumination (4500 Lx), 10 days, X-ray powder diffraction
[17] = High humidity (92.5% RH, 25° C.), 5 days, monomalate
[18] = High humidity (92.5% RH, 25° C.), 10 days, monomalate
[19] = High temperature (60° C.), 5 days, monomalate
[20] = High temperature (60° C.), 10 days, monomalate
[21] = Illumination (4500 Lx), 5 days, monomalate
[22] = Illumination (4500 Lx), 10 days, monomalate
[23] = High humidity (92.5% RH, 25° C.), 5 days, malate
[24] = High humidity (92.5% RH, 25° C.), 10 days, malate
[25] = High temperature (60° C.), 5 days, malate
[26] = High temperature (60° C.), 10 days, malate
[27] = Illumination (4500 Lx), 5 days, malate
[28] = Illumination (4500 Lx), 10 days, malate

CC(=O)O.CS(=O)(=O)N1CCC(c2ccc(-c3cc4nccnc4c(NC[C@@H]4CNCCO4)n3)cc2)CC1 [Form A-I, (S)-7-(4-(1-(methylsulfonyl)piperidin-4-yl)phenyl)-N-(morpholin-2-ylmethyl)pyrido[3,4-b]pyrazin-5-amine monoacetate]
Chiral Purity (%) ([1]; 0 day): 99.63%
Purity (%) ([1]; 0 day): 99.39%
Form [1, 5]: A-I
Chiral Purity (%) [1, 6]: 99.69%
Purity (%) [1, 6]: 99.35%
Form [1, 7]: A-I
Chiral Purity (%) [1, 8]: 99.71%
Purity (%) [1, 8]: 99.53%
Form [1, 9]: A-I
Chiral Purity (%) [1, 10]: 99.66%
Purity (%) [1, 10]: 99.31%
Form [1, 11]: A-I
Chiral Purity (%) [1, 12]: 99.71%
Purity (%) [1, 12]: 99.37%
Form [1, 13]: A-I
Chiral Purity (%) ([1]; Illumination (4500 Lx), 5 days): 99.69%
Purity (%) ([1]; Illumination (4500 Lx), 5 days): 99.30%
Form [1, 14]: A-I
Chiral Purity (%) [1, 15]: 99.71%
Purity (%) [1, 15]: 98.99%
Form [1, 16]: A-I
Stability (chemical purity and crystalline form) [1]: stable
solubility at 4 h ([2]; 37 °C): 26200 µg/mL
solubility at 4 h [2]: 21800 µg/mL
solubility at 5 min [3]: 14600 µg/mL

CS(=O)(=O)N1CCC(c2ccc(-c3cc4nccnc4c(NC[C@@H]4CNCCO4)n3)cc2)CC1.Cc1ccc(S(=O)(=O)O)cc1 [Form B-I, (S)-7-(4-(1-(methylsulfonyl)piperidin-4-yl)phenyl)-N-(morpholin-2-ylmethyl)pyrido[3,4-b]pyrazin-5-amine mono p-Tosylate]
Chiral Purity (%) ([1]; 0 day): 99.71%
Purity (%) ([1]; 0 day): 99.49%
Form [1, 5]: B-I
Chiral Purity (%) [1, 6]: 99.76%
Purity (%) [1, 6]: 99.47%
Form [1, 7]: B-I
Chiral Purity (%) [1, 8]: 99.71%
Purity (%) [1, 8]: 99.63%
Form [1, 9]: B-I
Chiral Purity (%) [1, 10]: 99.70%
Purity (%) [1, 10]: 99.48%
Form [1, 11]: B-I
Chiral Purity (%) [1, 12]: 99.76%
Purity (%) [1, 12]: 99.51%
Form [1, 13]: B-I
Chiral Purity (%) ([1]; Illumination (4500 Lx), 5 days): 99.76%
Purity (%) ([1]; Illumination (4500 Lx), 5 days): 99.19%
Form [1, 14]: B-I
Chiral Purity (%) [1, 15]: 99.72%
Purity (%) [1, 15]: 99.05%
Form [1, 16]: B-I
Rough solubility [3]: 650 µg/mL

CS(=O)(=O)N1CCC(c2ccc(-c3cc4nccnc4c(NC[C@@H]4CNCCO4)n3)cc2)CC1.O=C(O)CC(O)C(=O)O [Form C-I, (S)-7-(4-(1-(methylsulfonyl)piperidin-4-yl)phenyl)-N-(morpholin-2-ylmethyl)pyrido[3,4-b]pyrazin-5-amine monomalate]
Purity (%) ([1]; 0 day, monomalate): 99.71%
Form ([1]; 0 day, crystalline form by X-ray powder diffraction, monomalate): C-I
Chiral Purity (%) ([1]; 0 day, monomalate): 99.52%
Purity (%) [1, 17]: 99.72%
Form ([1]; High humidity (92.5% RH, 25° C.), 5 days, X-ray powder diffraction, monomalate): C-I
Chiral Purity (%) [1, 17]: 99.53%
Purity (%) [1, 18]: 99.68%
Form ([1]; High humidity (92.5% RH, 25° C.), 10 days, X-ray powder diffraction, monomalate): C-I
Chiral Purity (%) [1, 18]: 99.53%
Purity (%) [1, 19]: 99.61%
Form ([1]; High temperature (60° C.), 5 days, X-ray powder diffraction, monomalate): C-I
Chiral Purity (%) [1, 19]: 99.52%
Purity (%) [1, 20]: 99.63%
Form ([1]; High temperature (60° C.), 10 days, X-ray powder diffraction, monomalate): C-I
Chiral Purity (%) [1, 20]: 99.54%
Purity (%) [1, 21]: 99.67%
Form ([1]; Illumination (4500 Lx), 5 days, X-ray powder diffraction, monomalate): C-I
Chiral Purity (%) [1, 21]: 99.51%
Purity (%) [1, 22]: 99.61%
Form ([1]; Illumination (4500 Lx), 10 days, X-ray powder diffraction, monomalate): C-I
Chiral Purity (%) [1, 22]: 99.50%
Stability (chemical purity and crystalline form) [1]: stable
solubility at 5 min [3]: 480 µg/mL

CS(=O)(=O)N1CCC(c2ccc(-c3cc4nccnc4c(NC[C@@H]4CNCCO4)n3)cc2)CC1.O=C(O)CC(O)C(=O)O [Form C-III, (S)-7-(4-(1-(methylsulfonyl)piperidin-4-yl)phenyl)-N-(morpholin-2-ylmethyl)pyrido[3,4-b]pyrazin-5-amine malate]
Purity (%) ([1]; 0 day, malate): 99.75%
Form ([1]; 0 day, crystalline form by X-ray powder diffraction, malate): C-III
Chiral Purity (%) ([1]; 0 day, malate): 99.39%
Purity (%) [1, 23]: 99.67%
Form ([1]; High humidity (92.5% RH, 25° C.), 5 days, X-ray powder diffraction, malate): C-III
Chiral Purity (%) [1, 23]: 99.39%
Purity (%) [1, 24]: 99.69%
Form ([1]; High humidity (92.5% RH, 25° C.), 10 days, X-ray powder diffraction, malate): C-III
Chiral Purity (%) [1, 24]: 99.38%
Purity (%) [1, 25]: 99.57%
Form ([1]; High temperature (60° C.), 5 days, X-ray powder diffraction, malate): C-III
Chiral Purity (%) [1, 25]: 99.40%
Purity (%) [1, 26]: 99.70%
Form ([1]; High temperature (60° C.), 10 days, X-ray powder diffraction, malate): C-III
Chiral Purity (%) [1, 26]: 99.39%
Purity (%) [1, 27]: 99.59%
Form ([1]; Illumination (4500 Lx), 5 days, X-ray powder diffraction, malate): C-III
Chiral Purity (%) [1, 27]: 99.37%
Purity (%) [1, 28]: 99.65%
Form ([1]; Illumination (4500 Lx), 10 days, X-ray powder diffraction, malate): C-III
Chiral Purity (%) [1, 28]: 99.40%

CS(=O)(=O)N1CCC(c2ccc(-c3cc4nccnc4c(NC[C@@H]4CNCCO4)n3)cc2)CC1 [Free base of Formula A, (S)-7-(4-(1-(methylsulfonyl)piperidin-4-yl)phenyl)-N-(morpholin-2-ylmethyl) pyrido[3,4-b]pyrazin-5-amine]
solubility at 4 h ([4]; acetone, organic solvent or mixture): 2120 µg/mL
solubility at 4 h ([4]; ethanol, organic solvent or mixture): 640 µg/mL
solubility at 4 h ([4]; methanol, organic solvent or mixture): 1580 µg/mL
solubility at 4 h ([4]; purified water, 37 °C, water): 2.5 µg/mL
solubility at 4 h ([4]; purified water, water): 2.4 µg/mL
solubility at 4 h ([4]; tetrahydrofuran, organic solvent or mixture): 10700 µg/mL
